Tests used:
ZFP64 [1] = test: ZFP64 gene expression in diverse cancer cell lines (FIG. 4c); format: cell-based; conditions: 10 μM; 0, 2, 5 and 24 hours
Excerpt: To determine RNA expression levels of ZFP64 in different cancer cell lines and PBMC, the cell membranes were chemically disrupted with a buffer containing guanidine isothiocycanate, which lyses the cells and supports the binding of RNA to a silica membrane and RNA was extracted via a filter-based spin column.

TBP = test: qPCR relative expression (vs cycle 1, day 1, hour 0) in patients' whole blood; format: in vivo, human
Procedure: (§1) 2.5 ml whole blood from patients was collected in PAXgene™ tubes (BD Biosciences) that contain chemicals to lyse the erythrocytes, stabilize RNA from degradation by RNases and minimize ex vivo changes in gene expression. The samples were incubated at 20° C. to 25° C. for 2 hours and then frozen at −20° C. until purification of total RNA.
(§2) Total RNA was isolated from the whole blood samples stabilized in PAXgene™ buffer using a spin column based technique suitable for whole blood samples (like PAXgene™ Blood miRNA Kit or PAXgene™ Blood RNA Kit from Qiagen) according to the manufacturer's instructions. The purification began with a centrifugation step to pellet nucleic acids in the (PAXgene™ Blood RNA) tube. The resuspended pellet was incubated in buffers, optimized for maintenance of RNA stability together with proteinase K to bring about protein digestion. An additional centrifugation through the PAXgene™ Shredder spin column was carried out to homogenize the cell lysate and remove residual cell debris, and the supernatant of the flow-through fraction was transferred to a fresh microcentrifuge tube. Ethanol was added to adjust binding conditions, and the lysate was applied to a PAXgene™ RNA spin column. During a brief centrifugation, RNA was selectively bound to the PAXgene™ silica membrane as contaminants pass through. Remaining contaminants were removed in several efficient wash steps. Between the first and second wash steps, the membrane was treated with DNase I, as described herein below in 1.3 to remove trace amounts of bound DNA. After the wash steps, RNA was eluted in nuclease free water and heat-denatured.
(§3) The High-Capacity cDNA Reverse Transcription Kit (Applied Biosystems) was used for reverse transcription of total RNA into single stranded cDNA with the aid of random hexamer primers according to the manufacturer's instructions. Briefly, for the reaction mix total RNA was mixed with random primers in excess, 4 mM dNTP Mix, 2.5 U/reaction, reverse transcriptase and nuclease free water. The reverse transcription took place in a thermal cycler under the following conditions: 25° C. for 10 min, 37° C. for 120 min, 85° C. for 5 min, followed by 4° C. for cooling down the reaction. The reverse transcription can be done in principle as well with other reverse transcriptases, primers and temperature protocols. Whenever possible, 250 ng total RNA were reverse transcribed if not available, lower amounts were used.
(§4) Custom TaqMan® Arrays (Applied Biosystems) in Format 16 were designed for the gene expression analysis of biomarkers of the present invention and housekeeping genes as outlined in table 4. These arrays allow for qPCR analysis of 8 samples per card. Of course, all reactions can be done as well by conventional qPCR analysis with specific primers.
(§5) The reaction mix was transferred into the reaction chambers by centrifuging twice for 1 minute each at 330 g and 4° C. After sealing, the microfluidic cards were run on an AB7900HT instrument (Applied Biosystems). The software SDS 2.4 (Applied Biosystems) was employed for instrument control, data acquisition and raw data analysis. The plates were run in Relative Quantification (ΔΔCt) mode, and the following temperature profile was used:
(§6) This analysis was carried out for each patient separately. The first sample (cycle 1, day 1, hour 0) was used as the reference sample. The ‘exprs’ value indicates relative expression levels (fold change values) for individual samples.
(§7) Table 5 contains the median expression level values for treatment day 5 (cycle 1, day 5, hours 0, 2, and 5) at a daily dose of 600 mg or 800 mg Resminostat mesylate salt is given below.

MICALL1 = test: as above; format: in vivo, human
Procedure: as §1, §2, §3, §4, §5, §6, §7

CCDC43 = test: as above; format: in vivo, human
Procedure: as §1, §2, §3, §4, §5, §6, §7

DPP3 = test: as above; format: in vivo, human
Procedure: as §1, §2, §3, §4, §5, §6, §7

GAPDH = test: as above; format: in vivo, human
Procedure: as §1, §2, §3, §4, §5, §6, §7

ZFP64 [2] = test: as above; format: in vivo, human
Procedure: as §1, §2, §3, §4, §5, §6, §7

KDELC2 = test: as above; format: in vivo, human
Procedure: as §1, §2, §3, §4, §5, §6, §7

[3] = cycle 1, day 5, hour 0, 600 mg dose
[4] = cycle 1, day 5, hour 0, 800 mg dose
[5] = cycle 1, day 5, hour 2, 600 mg dose
[6] = cycle 1, day 5, hour 2, 800 mg dose
[7] = cycle 1, day 5, hour 5, 600 mg dose
[8] = cycle 1, day 5, hour 5, 800 mg dose

- Median expression level, MICALL1 (MICALL1; [3]): 0.981
- Median expression level, MICALL1 (MICALL1; [4]): 1.024
- Median expression level, MICALL1 (MICALL1; [5]): 0.395
- Median expression level, MICALL1 (MICALL1; [6]): 0.407
- Median expression level, MICALL1 (MICALL1; [7]): 0.201
- Median expression level, MICALL1 (MICALL1; [8]): 0.163
SMILES: CN(C)Cc1ccc(S(=O)(=O)n2ccc(/C=C/C(=O)NO)c2)cc1 [resminostat, (E)-3-(1-(4-((dimethylamino)methyl)phenylsulfonyl)-1H-pyrrol-3-yl)-N-hydroxyacrylamide]
- ZFP64 expression in several cancer cell lines (FIG. 4c) (ZFP64 [1]): down-regulating effect
- Median expression level, TBP (TBP; [3]): 0.991
- Median expression level, TBP (TBP; [4]): 1.305
- Median expression level, TBP (TBP; [5]): 0.994
- Median expression level, TBP (TBP; [6]): 1.071
- Median expression level, TBP (TBP; [7]): 1.052
- Median expression level, TBP (TBP; [8]): 1.286
- Median expression level, CCDC43 (CCDC43; [3]): 0.917
- Median expression level, CCDC43 (CCDC43; [4]): 1.391
- Median expression level, CCDC43 (CCDC43; [5]): 0.318
- Median expression level, CCDC43 (CCDC43; [6]): 0.329
- Median expression level, CCDC43 (CCDC43; [7]): 0.378
- Median expression level, CCDC43 (CCDC43; [8]): 0.319
- Median expression level, DPP3 (DPP3; [3]): 1.121
- Median expression level, DPP3 (DPP3; [4]): 1.457
- Median expression level, DPP3 (DPP3; [5]): 0.767
- Median expression level, DPP3 (DPP3; [6]): 0.912
- Median expression level, DPP3 (DPP3; [7]): 0.267
- Median expression level, DPP3 (DPP3; [8]): 0.395
- Median expression level, GAPDH (GAPDH; [3]): 1.092
- Median expression level, GAPDH (GAPDH; [4]): 1.136
- Median expression level, GAPDH (GAPDH; [5]): 1.201
- Median expression level, GAPDH (GAPDH; [6]): 1.362
- Median expression level, GAPDH (GAPDH; [7]): 1.296
- Median expression level, GAPDH (GAPDH; [8]): 1.228
- ZFP64 expression in cancer patients (FIG. 4b) (ZFP64 [2]; blood cells of HCC and HL patients, 600 or 800 mg daily, Day 1 and Day 5): down-regulates
- Median expression level, ZFP64 (ZFP64 [2]; [3]): 0.980
- Median expression level, ZFP64 (ZFP64 [2]; [4]): 1.280
- Median expression level, ZFP64 (ZFP64 [2]; [5]): 0.412
- Median expression level, ZFP64 (ZFP64 [2]; [6]): 0.356
- Median expression level, ZFP64 (ZFP64 [2]; [7]): 0.228
- Median expression level, ZFP64 (ZFP64 [2]; [8]): 0.188
- Median expression level, KDELC2 (KDELC2; [3]): 0.909
- Median expression level, KDELC2 (KDELC2; [4]): 1.141
- Median expression level, KDELC2 (KDELC2; [5]): 0.544
- Median expression level, KDELC2 (KDELC2; [6]): 0.509
- Median expression level, KDELC2 (KDELC2; [7]): 0.215
- Median expression level, KDELC2 (KDELC2; [8]): 0.215
